The test system of series [1] is Paclitaxel-induced allodynia. Nature of the series: Paclitaxel-induced allodynia in Sprague Dawley rats (von Frey assay). Format: in vivo. As to the method:
Example 5: Paclitaxel-induced Allodynia in Sprague Dawley Rats
Therapy however is often associated with the unwanted side affects of painful peripheral neuropathy.
Male Sprague Dawley rats [200-250 g] (Harlan Laboratories Inc., Livermore, Calif.) were housed three per cage and maintained in a humidity-controlled (40-60%) and temperature-controlled (68-72° F.) facility on a 12 h:12 h light/dark cycle (lights on at 6:30 am) with free access to food (Harlan Teklad, Orange, Calif., Rodent Diet 8604) and water. Rats were allowed one week of habituation to the animal facility before starting treatment.
Rats were treated intraperitoneally, with 2 mg/kg of paclitaxel (Sigma Aldrich, Saint Louis, Mo.) in 10% Cremophor vehicle (500 μL) on days 0, 2, 4, and 6.
Tactile allodynia was tested using von Frey filaments. Briefly, the von Frey assay was performed using the standardized up down method with von Frey filaments, that determine the tactile sensitivity of the paw. By applying the increasingly or decreasingly thicker filaments to the paw in a logarithmic scale of actual force, a linear scale of perceived intensity is determined.
Eight days after the start of paclitaxel dosing, a baseline measurement (von Frey assay) was performed prior to dosing of compounds. […] As a positive control, rats were dosed intraperitoneally with 100 mg/kg gabapentin in water. […]

The nature of series [2]: Dynamic moisture-sorption (DMS) analysis. Format: physicochemical. As to the method: Example 9: Dynamic Moisture-Sorption Analysis
A dynamic moisture-sorption (DMS) study was conducted using a dynamic moisture-sorption analyzer, VTI Corporation, SGA-100. The instrument was calibrated using polyvinyl pyrrolidone (PVP) and NaCl. Samples were prepared for DMS analysis by placing 5 mg to 20 mg of a sample in a tared sample holder. The sample was placed on the hang-down wire of the VTI balance. A drying step was run, typically at 40° C. and 0.5-1% RH for 1 h. The isotherm temperature is 25° C. Defined % RH holds typically ranged from 10% RH to 90% RH, with intervals of 10 to 20% RII. A % weight change smaller than 0.010% over 10 min, or up to 2 h, whichever occurred first, was required before continuing to the next % RH hold. The water content of the sample equilibrated as described above was determined at each % RH hold.

Structures are written as SMILES.

Consider `CC(C)(CO)NC(=O)c1nn(-c2ccc(F)cc2F)c2c1C[C@H]1C[C@@H]21` [Compound 493, (1aR,5aR)-2-(2,4-Difluoro-phenyl)-1a,2,5,5a-tetrahydro-1H-2,3-diaza-cyclopropa[a]pentalene-4-carboxylic Acid (2-Hydroxy-1,1-dimethyl-ethyl)-amide], for which the “paw withdrawal threshold (PWT)” value in series [1] (10 mg/kg orally in PEG400, paclitaxel treated rats, von Frey assay 30, 60 and 180 minutes after dosing, in comparison with vehicle and gabapentin) was “increase”. Also, the “time of maximum efficacy post-dosing” value in series [1] (10 mg/kg orally, paclitaxel treated rats, von Frey assay time course) was determined as 1 h.

As for `CC(C)(C)[C@@H](CO)NC(=O)c1nn(-c2c[n+]([O-])ccn2)c2c1C[C@@H]1C[C@H]21` [Compound 699 (Anhydrous Form), (1aS,5aS)-2-(4-Oxy-pyrazin-2-yl)-1a,2,5,5a-tetrahydro-1H-2,3-diaza-cyclopropa[a]pentalene-4-carboxylic Acid ((S)-1-Hydroxymethyl-2,2-dimethyl-propyl)-amide], the “Weight (% Change)” value is on record as 0 % Change in series [2] (Sample RH […], elapsed time 46.6 min, 25.46); 0.151 % Change in series [2] (adsorption, Sample RH 29.94%, elapsed time 71.4 min); 0.282 % Change in series [2] (adsorption, Sample RH 49.86%, elapsed time 91.1 min); 0.482 % Change in series [2] (adsorption, Sample RH 69.77%, elapsed time 111.2 min); 0.581 % Change in series [2] (adsorption, Sample RH 79.70%, elapsed time 129.1 min); 0.762 % Change in series [2] (adsorption, Sample RH 89.72%, elapsed time 160.1 min). Moreover, the “Weight (% Change)” value in series [2] (desorption, Sample RH 10.06%, elapsed time 234.4 min) worked out at 0.080 % Change; in series [2] (desorption, Sample RH 29.99%, elapsed time 218.6 min), 0.181 % Change; in series [2] (desorption, Sample RH 50.07%, elapsed time 200.1 min), 0.364 % Change; in series [2] (desorption, Sample RH 70.11%, elapsed time 180.1 min), 0.526 % Change. Further, the DMS weight change was 1.0% or less weight change from about 10% relative humidity in series [2] (adsorption/desorption isotherm, from about 10% relative humidity (RH) to about 90% RH); “(RH) to about 90% RH; and about 0.1% or less weight change” in series [2] (after a 10% RH to 90% RH back to 10% RH cycle).
